Experimental data taken from US11046668B2, “Small molecule antimicrobials” (Ohio State Innovation Foundation, priority 2016, dated 2021).
Converted amounts (≈) assume the structure as drawn. “Also recorded” adds a separate entry of the source. Marks after values point to notes of the source that are not given here.

Assays:
C. coli [1] = assay: MIC test in 96 well plate with TTC; assay type: cell-based; conditions: Campylobacter coli, 42° C. microaerobically, 24 hours
C. jejuni [2] = assay: MIC test in 96 well plate with TTC; assay type: cell-based; conditions: Campylobacter jejuni, 42° C. microaerobically, 24 hours
C. jejuni [3] = assay: Log reduction test in broth; conditions: JA-144 6.25 ppm, TH-4 25 ppm, TH-8 50 ppm, 24 hours; for Log10 CFU/ml reduction: C. jejuni in broth, vs control; for C. jejuni count after treatment: in broth
Method: (§1) After 24 hours incubation, the broth was centrifuged at 4,000 rpm for 5 min at 23° C. with appropriate aseptic precautions. The supernatant was discarded and the pellet resuspended using 1 ml of sterile peptone water and centrifuged again at 4000 rpm for 5 min. This step was repeated until the supernatant was clear. The pellets were then suspended in 1 ml sterile peptone water, and seven consecutive 10-fold dilutions were made to obtain inoculums ready for the plate counts. For the experimental groups with the small molecule compounds, 0.1 ml of diluted broth (dilution of 10^−2; 10^−4; 10^−6) were inoculated on to the plates. For the control groups, 0.1 ml of diluted broth (dilution of 10^−6 and 10^−7) was added to the plates. They were then incubated at 37° C. aerobically (for E. coli and L. innocua), or 42° C. microaerobically (for C. jejuni and C. coli) for 24 hours, and then colony numbers on each plate counted using a Darkfield Colony Counter manufactured by American Optical (Buffalo, N.Y.).

C. jejuni colonization = assay: In vivo effect on C. jejuni colonization in broiler chickens; conditions: administered orally, in 30% DMSO; three week old broiler chickens
[4] = test system: colon cells (CCD-112CoN, ATCC); assay: Cytotoxicity assay on normal colon cells (sulforhodamine B); assay type: cell-based, human; conditions: for toxicity against the colon cells: CCD-112CoN, ATCC, data not shown; for survival rates of colon cells: at 200 μM; for highest concentrations of each compound to cause lysis of human colon cells, converted to ppm: 200 μM converted to ppm
C. jejuni [5] = assay: Bacterial growth curves (optical density); conditions: OD every 4 hours
Method: (§2) For E. coli K12 and L. innocua, the bacterial incubations were followed by measurements of the Optical Density (OD) values every 15 minutes in an automated Sunrise™ Tecan Spectrophotometer (Tecan Co.) during an incubation period of 24 hours at 37° C. For C. jejuni, the incubation experimental design was similar, but the measurement period occurred every 4 hours. From the data collected, comparisons were made with the control samples and statistical analyses were used to determine the significance between the means for all observations.

[6] = test system: Salmonella, E. coli, Listeria and also several commensal and/or probiotic bacteria; assay: Specificity against diverse foodborne pathogens and commensal/probiotic bacteria; assay type: cell-based; conditions: tested for specificity against foodborne pathogens and commensal/probiotic bacteria
C. coli [7] = assay: Log reduction test in broth; conditions: JA-144 3.125 ppm, TH-4 12.5 ppm, TH-8 50 ppm, 24 hours; for Log10 CFU/ml reduction: C. coli in broth, vs control; for C. coli count after treatment: in broth
Method: as §1

C. coli [8] = assay: Log reduction test in tapioca film; conditions: for % Efficacy loss due to incorporation / Log10 CFU/ml reduction: C. coli; for % Efficacy loss due to incorporation: film vs broth; for Log10 CFU/ml reduction / C. coli count after treatment: in tapioca film, JA-144 3.125 ppm, TH-4 12.5 ppm, TH-8 50 ppm, 24 hours; for Log10 CFU/ml reduction: vs control
Method: (§3) The films prepared above were cut into small pieces that were capable of fitting into 1.5 ml micro-tubes. The weight of each film sample ranged from 5 to 15 mg. The micro-tubes were then exposed to UV light for 18 hours to eliminate possible contamination that may have occurred during the cutting and transferring process. […] After adding the proper amount of bacterial culture, the micro-tubes were placed in an incubator aerobically at 37° C. (for E. coli and L. innocua), or microaerobically at 42° C. (for C. jejuni and C. coli), for 24 hours, respectively.
as §1

Solubility in water = assay type: physicochemical
C. jejuni [9] = assay: Log reduction test in tapioca film; conditions: for % Efficacy loss due to incorporation / Log10 CFU/ml reduction: C. jejuni; for % Efficacy loss due to incorporation: film vs broth; for Log10 CFU/ml reduction / C. jejuni count after treatment: in tapioca film, JA-144 6.25 ppm, TH-4 25 ppm, TH-8 50 ppm, 24 hours; for Log10 CFU/ml reduction: vs control
Method: as §3, §1

L. innocua [10] = assay: MIC test in 96 well plate with TTC; assay type: cell-based, Listeria innocua; conditions: for antimicrobial activity: starting concentration 50 ppm
E. coli K12 [11] = assay: MIC test in 96 well plate with TTC; assay type: cell-based; conditions: for antimicrobial activity: starting concentration 50 ppm
E. coli K12 [12] = assay: Bacterial growth curves (optical density); conditions: OD over 24 hours at 37° C.
Method: as §2

L. innocua [13] = assay: Bacterial growth curves (optical density); conditions: OD over 24 hours at 37° C.
Method: as §2

L. innocua [14] = assay: Log reduction test in broth; conditions: 100 ppm JA-144
Method: as §1

E. coli K12 [15] = assay: Log reduction test in tapioca film
Method: as §3, §1

L. innocua [16] = assay: Log reduction test in tapioca film
Method: as §3, §1

E. coli K12 [17] = assay: Log reduction test in broth; conditions: 100 ppm JA-144
Method: as §1

[18] = test system: pathogenic E.coli, Listeria strain, C. jejuni and E. coli bacteria; assay: Efficacy of JA-144 when incorporated in edible films (Example 1); assay type: cell-based
Text: As described in primary HTS, we screened re-synthesized two compounds for C. jejuni 81-176 growth inhibition. Both re-synthesized compounds effective inhibiting Campylobacter growth at tested concentrations. […] Where positive control (P CNTL includes Campylobacter culture with known antibiotics and negative control (N CNTL) include Camylobacter culture alone. See FIG. 13. Testing the efficacy of JA-144 when incorporated in edible films against pathogenic E.coli, Listeria strain, C. jejuni and E. coli bacteria. The control (CNTL) include edible film alone. JA-144 was effective in reducing most of the pathogenic bacteria by 4 log. See FIG. 14. A cytotoxicity assay for potent semi-synthetic derivative compounds were performed using normal colon cells and sulfohodamine B methods. See FIG. 15. A cytotoxicity assay was performed for two re-synthesized compounds using normal colon cells and sulforhodamine B methods.

[19] = in tapioca film, 1% w/w JA-144, 24 hours incubation

SMILES | MIC (C. coli [1]) [µg/mL] | MIC (C. jejuni [2]) [µg/mL] | Log10 CFU/ml reduction (C. jejuni [3]) [Log10 CFU/ml] | C. jejuni count after treatment (C. jejuni [3]) | in vivo results in a chicken model (C. jejuni colonization) | toxicity against the colon cells [4] | survival rates of colon cells [4] [%] | highest concentrations of each compound to cause lysis of human colon cells [4] [µM] | highest concentrations of each compound to cause lysis of human colon cells, converted to ppm [4] [ppm] | concentration that completely inhibited growth (growth curve) (C. jejuni [5]) [ppm] | spectrum of antibacterial activity [6] | Log10 CFU/ml reduction (C. coli [7]) [Log10 CFU/ml] | C. coli count after treatment (C. coli [7]) | % Efficacy loss due to incorporation (C. coli [8]) [%] | Log10 CFU/ml reduction (C. coli [8]) [Log10 CFU/ml] | C. coli count after treatment (C. coli [8]) | solubility in water (Solubility in water) | % Efficacy loss due to incorporation (C. jejuni [9]) [%] | Log10 CFU/ml reduction (C. jejuni [9]) [Log10 CFU/ml] | C. jejuni count after treatment (C. jejuni [9]) | further results
O=S(=O)(NCc1ccc(F)cc1)c1ccc(Cl)s1 [TH-4] | 12.5 to 25 (≈ 40.9 to 81.8 µM) | 12.5 to 25 (≈ 40.9 to 81.8 µM) | 6.37 | 2.78 ± 0.09^a Log10 CFU/ml | promising in vivo results | lacked toxicity | 60 | 200 | 61.1 | 25 | specific to C. jejuni and C. coli | 6.16 | 3.21 ± 0.12^a Log10 CFU/ml | 29.02 | 4.37 | 5.03 ± 0.07^a Log10 CFU/ml | not readiliy soluble in water | 6.09 | 5.99 | 3.16 ± 0.14^a Log10 CFU/ml | antimicrobial activity (L. innocua [10]): ineffective; also recorded: no antimicrobialactivity; antimicrobial activity (E. coli K12 [11]): ineffective; also recorded: no antimicrobialactivity
OCC1(Cc2ccccc2)CCCN(Cc2cc3ccccc3[nH]2)C1 (stereo not shown) [JA-144] | 3.12 to 6.25 (≈ 9.34 to 18.7 µM) | 3.12 to 6.25 (≈ 9.34 to 18.7 µM) | 6.35 | 2.90 ± 0.09^a Log10 CFU/ml |  |  | 99 | 200 | 66.9 | 6.25 | broad spectrum effect on other bacteria including E. coli and Listeria | 6.27 | 2.93 ± 0.26^a Log10 CFU/ml | 2.03 | 6.14 | 2.93 ± 0.16^a Log10 CFU/ml |  | 0.25 | 6.36 | 2.86 ± 0.13^a Log10 CFU/ml | concentration that completely inhibited growth (growth curve) (E. coli K12 [12]): 100 ppm; concentration that completely inhibited growth (growth curve) (L. innocua [13]): 100 ppm; Log10 CFU/ml reduction (L. innocua [14]; L. innocua in broth, 24 hours, vs control): 5.52 Log10 CFU/ml; L. innocua count after treatment (L. innocua [14]; in broth, 24 hours incubation): 3.14 ± 0.11^b Log10 CFU/ml; Percent efficacy loss due to incorporation (E. coli K12 [15]; E. coli K12, film vs broth): 43.48%; Log10 CFU/ml reduction (E. coli K12 [15]; E. coli K12, tapioca film, 1% w/w JA-144, 24 hours, vs control): 3.31 Log10 CFU/ml; E. coli K12 count after treatment (E. coli K12 [15]; [19]): 5.58 ± 0.08^a Log10 CFU/ml; MIC (L. innocua [10]; Listeria innocua, 37° C. aerobically, 24 hours): 50 to 100 µg/mL (≈ 149 to 299 µM); Percent efficacy loss due to incorporation (L. innocua [16]; L. innocua, film vs broth): 36.42%; Log10 CFU/ml reduction (L. innocua [16]; L. innocua, tapioca film, 1% w/w JA-144, 24 hours, vs control): 3.51 Log10 CFU/ml; L. innocua count after treatment (L. innocua [16]; [19]): 5.22 ± 0.07^b Log10 CFU/ml; Log10 CFU/ml reduction (E. coli K12 [17]; E. coli K12 in broth, 24 hours, vs control): 5.86 Log10 CFU/ml; E. coli K12 count after treatment (E. coli K12 [17]; in broth, 24 hours incubation): 2.96 ± 0.30^a Log10 CFU/ml; MIC (E. coli K12 [11]; Escherichia coli, 37° C. aerobically, 24 hours): 100 µg/mL (≈ 299 µM); reduction of most of the pathogenic bacteria [18]: 4 log
Cc1ccccc1CNS(=O)(=O)c1ccc(Cl)s1 [TH-8] | 25 to 50 (≈ 82.8 to 166 µM) | 25 to 50 (≈ 82.8 to 166 µM) | 5.39 | 3.64 ± 0.05^a Log10 CFU/ml | promising in vivo results | lacked toxicity | 79 | 200 | 60.4 | 50 | specific to C. jejuni and C. coli | 5.51 | 4.11 ± 0.05^a Log10 CFU/ml | 48.01 | 2.87 | 6.83 ± 0.06^a Log10 CFU/ml | not readiliy soluble in water | 25.52 | 4.01 | 5.10 ± 0.07^a Log10 CFU/ml | antimicrobial activity (L. innocua [10]): ineffective; also recorded: did not show antimicrobialactivity; antimicrobial activity (E. coli K12 [11]): ineffective; also recorded: did not show antimicrobialactivity
